Measurements as given in US3932459A, “Novel cyclopropanecarboxylic acid esters” (Sumitomo Chemical Company, Limited, priority 1973, dated 1976).
Converted amounts (≈) assume the structure as drawn.

Columns and labels:
[1] = tested on: green rice leafhoppers (Nephotettix cincpriceps); assay: Knock-down of green rice leafhoppers on treated rice seedlings (Experiment 3); type: in vivo; conditions: 400-fold aqueous diluted solution of 20% emulsifiable concentrate
Description: Each of the present compounds (1) to (7), and the corresponding chrysanthemic acid esters were individually formulated into a 20% emulsifiable concentrate by usual methods.
About 20 rice seedlings were grown up to a 3- to 4-leave stage in a flower pot of 10 cm in diameter, and the 400-fold aqueous diluted solution of each emulsifiable concentrate was applied thereto by means of a turn table.
After air-drying, each pot was placed in a 5 liter glass beaker and covered with gauze at the top. Then, 20 green rice leafhoppers (Nephotettix cincpriceps) were liberated therein and the number of knocked down insects were counted at definite time intervals.

[2] = tested on: insects; conditions: J. Farkas et al., Chem. Listy 52, 688, 1958; cited from earlier work
[3] = tested on: fourth instar larvae of diamond-back moth (Plutella maculipennis); assay: Emulsifiable concentrate sprayed on chinese cabbage leaves, diamond-back moth larvae (Experiment 2); type: in vivo; conditions: for LC50: Plutella, 48 h, 20% emulsifiable concentrate diluted with water, after 2 days, read-out: LC50 (50% lethal concentration); for Relative efficacy: corresponding chrysanthemic acid ester (control) = 1.0
Description: Each of the present compounds (1), (2) and (5), and the corresponding chrysanthemic acid esters were individually formulated into a 20% emulsifiable concentrate by usual methods.
10 ml of each of the emulsifiable concentrates which had been diluted with water to the required concentration were sprayed on to four leaves of chinese cabbage grown up to a 3- to 4-leave stage. Then the leaves were placed in a glass Petri dish of 14 cm in diameter and 7 cm high, and 10 fourth instar larvae of diamond-back moth (Plutella maculipennis) were liberated therein. After 2 days, the dead and alive were counted.

[4] = tested on: house-fly adults (Musca domestica); assay: Oil spray, Campbel's turn table apparatus, house-fly adults (Experiment 1); type: in vivo; conditions: for LC50: Musca domestica, read-out: LC50 (50% lethal concentration); for Relative efficacy: corresponding dl-trans-chrysanthemic acid ester (control) = 1.0
Description: The dl-trans isomer of each of the present compounds (1), (2), (4) and (7), and the corresponding dl-trans-chrysanthemic acid esters were individually dissolved in deodorized kerosene to prepare oil sprays of required concentration.
5 ml of each of the oil sprays were sprayed, using Campbel's turn table apparatus ("Soap and Sanitary Chemicals," Vol. 14, No. 6, 119, 1938). Twenty seconds after spraying, the shutter was opened, and about 100 house-fly adults (Musca domestica) per group were exposed to the descending mist for 10 minutes and then transferred to the observation cage. In the cage, the flies were fed and allowed to stand for one day at room temperature.
Thereafter, the number of killed flies was counted to calculate the mortality thereof.

## C#CCc1ccc(COC(=O)C2C(C=C(Cl)Cl)C2(C)C)s1 (stereo not shown) [Present compound (7), 5-Propargyl-2-thenyl 2',2'-dimethyl-3'-(2",2"-dichlorovinyl)-cyclopropanecarboxylate]
[1]
  KT50 (a time required for 50% knock-down): 15 min

## C=CCC1=C(C)C(OC(=O)C2C(C=C(Cl)Cl)C2(C)C)CC1=O (stereo not shown) [allethronyl ester of the acid]
[2]
  insecticidal activity: close to that of chrysanthemic acid ester

## CC(C)=CC1C(C(=O)OCc2csc(Cc3ccccc3)c2)C1(C)C (stereo not shown)
[1]
  KT50 (a time required for 50% knock-down): 53 min

## CC1(C)C(C=C(Cl)Cl)C1C(=O)OCc1ccc(Cc2ccccc2)s1 (stereo not shown) [Present compound (1), 5-benzyl-2-thenyl 2',2'-dimethyl-3'-(2",2"-dichlorovinyl)-cyclopropanecarboxylate]
[3]
  LC50: 28 mg/L (≈ 70.8 µM)
  Relative efficacy: 3.0
[1]
  KT50 (a time required for 50% knock-down): 17 min

## CC(C)=C[C@@H]1[C@@H](C(=O)OCc2cc3c(s2)CCCC3)C1(C)C (relative stereo)
[4]; 24 h
  LC50: 834 mg/L (≈ 2620 µM)
[4]
  Relative efficacy: 1.0

## C#CCc1ccc(COC(=O)C2C(C=C(C)C)C2(C)C)s1 (stereo not shown)
[1]
  KT50 (a time required for 50% knock-down): 38 min

## CC1(C)C(C=C(Cl)Cl)C1C(=O)OCc1cc2c(s1)CCCC2 (stereo not shown) [Present compound (4), 4-5-Tetramethylene-2-thenyl 2',2'-dimethyl-3'-(2",2"-dichlorovinyl)-cyclopropanecarboxylate]
[1]
  KT50 (a time required for 50% knock-down): 24 min

## C=CCc1ccc(COC(=O)C2C(C=C(Cl)Cl)C2(C)C)s1 (stereo not shown) [Present compound (6), 5-Allyl-2-thenyl 2',2'-dimethyl-3'-(2",2"-dichlorovinyl)-cyclopropanecarboxylate]
[1]
  KT50 (a time required for 50% knock-down): 19 min

## CC1(C)[C@H](C=C(Cl)Cl)[C@H]1C(=O)OCc1cc2c(s1)CCCC2 (relative stereo) [dl-Trans isomer of present compound (4), 4-5-Tetramethylene-2-thenyl 2',2'-dimethyl-3'-(2",2"-dichlorovinyl)-cyclopropanecarboxylate]
[4]; 24 h
  LC50: 217 mg/L (≈ 604 µM)
[4]
  Relative efficacy: 3.8

## CC(C)=CC1C(C(=O)OCc2ccc(Cc3ccccc3)s2)C1(C)C (stereo not shown)
[3]
  LC50: 85 mg/L (≈ 240 µM)
  Relative efficacy: 1.0
[1]
  KT50 (a time required for 50% knock-down): 37 min

## CC1(C)[C@H](C=C(Cl)Cl)[C@H]1C(=O)OCc1ccc(Oc2ccccc2)s1 (relative stereo) [dl-Trans isomer of present compound (2), 5-Phenoxy-2-thenyl 2',2'-dimethyl-3'-(2",2"-dichlorovinyl)-cyclopropanecarboxylate]
[4]; 24 h
  LC50: 135 mg/L (≈ 340 µM)
[4]
  Relative efficacy: 4.0

## CC(C)=CC1C(C(=O)OCc2ccc(C3C=CCC3)s2)C1(C)C (stereo not shown)
[1]
  KT50 (a time required for 50% knock-down): 40 min

## C#CCc1ccc(COC(=O)[C@@H]2[C@@H](C=C(Cl)Cl)C2(C)C)s1 (relative stereo) [dl-Trans isomer of present compound (7), 5-Propargyl-2-thenyl 2',2'-dimethyl-3'-(2",2"-dichlorovinyl)-cyclopropanecarboxylate]
[4]; 24 h
  LC50: 205 mg/L (≈ 597 µM)
[4]
  Relative efficacy: 4.2

## CC1(C)C(C=C(Cl)Cl)C1C(=O)OCc1ccc(Oc2ccccc2)s1 (stereo not shown) [Present compound (2), 5-Phenoxy-2-thenyl 2',2'-dimethyl-3'-(2",2"-dichlorovinyl)-cyclopropanecarboxylate]
[3]
  LC50: 37 mg/L (≈ 93.1 µM)
  Relative efficacy: 2.6
[1]
  KT50 (a time required for 50% knock-down): 28 min

## CC1(C)C(C=C(Cl)Cl)C1C(=O)OCc1ccc(C2C=CCC2)s1 (stereo not shown) [Present compound (8), 5-(2'-cyclopentene-1'-yl)-2-thenyl 2",2"-dimethyl-3"-(2"',2"'-dichlorovinyl)-cyclopropanecarboxylate]
[1]
  KT50 (a time required for 50% knock-down): 19 min

## CC(C)=CC1C(C(=O)OCc2cc3c(s2)CCCC3)C1(C)C (stereo not shown)
[1]
  KT50 (a time required for 50% knock-down): 46 min

## CC(C)=CC1C(C(=O)OCc2cc3c(s2)CCC3)C1(C)C (stereo not shown)
[3]
  LC50: 114 mg/L (≈ 374 µM)
  Relative efficacy: 1.0
[1]
  KT50 (a time required for 50% knock-down): 43 min

## CC(C)=C[C@@H]1[C@@H](C(=O)OCc2ccc(Cc3ccccc3)s2)C1(C)C (relative stereo)
[4]; 24 h
  LC50: 386 mg/L (≈ 1090 µM)
[4]
  Relative efficacy: 1.0

## CC(C)=CC1C(C(=O)OCc2ccc(Oc3ccccc3)s2)C1(C)C (stereo not shown)
[3]
  LC50: 97 mg/L (≈ 272 µM)
  Relative efficacy: 1.0
[1]
  KT50 (a time required for 50% knock-down): 45 min

## Pyrethrin
[4]; house fly, in vivo, 24 h
  LC50 (50% lethal concentration): 216 mg/100 ml

## C=CCc1ccc(COC(=O)C2C(C=C(C)C)C2(C)C)s1 (stereo not shown)
[1]
  KT50 (a time required for 50% knock-down): 40 min

## CC1(C)C(C=C(Cl)Cl)C1C(=O)OCc1cc2c(s1)CCC2 (stereo not shown) [Present compound (5), 4,5-Trimethylene-2-thenyl 2',2'-dimethyl-3'-(2",2"-dichlorovinyl)-cyclopropanecarboxylate]
[3]
  LC50: 47 mg/L (≈ 136 µM)
  Relative efficacy: 2.4
[1]
  KT50 (a time required for 50% knock-down): 21 min

## CC1(C)C(C=C(Cl)Cl)C1C(=O)OCc1csc(Cc2ccccc2)c1 (stereo not shown) [Present compound (3), 5-Benzyl-3-thenyl 2',2'-dimethyl-3'-(2",2"-dichlorovinyl)-cyclopropanecarboxylate]
[1]
  KT50 (a time required for 50% knock-down): 30 min

## CC(C)=C[C@@H]1[C@@H](C(=O)OCc2ccc(Oc3ccccc3)s2)C1(C)C (relative stereo)
[4]; 24 h
  LC50: 540 mg/L (≈ 1510 µM)
[4]
  Relative efficacy: 1.0

## C#CCc1ccc(COC(=O)[C@@H]2[C@@H](C=C(C)C)C2(C)C)s1 (relative stereo)
[4]; 24 h
  LC50: 858 mg/L (≈ 2840 µM)
[4]
  Relative efficacy: 1.0

## CC1(C)[C@H](C=C(Cl)Cl)[C@H]1C(=O)OCc1ccc(Cc2ccccc2)s1 (relative stereo) [dl-Trans isomer of present compound (1), 5-benzyl-2-thenyl 2',2'-dimethyl-3'-(2",2"-dichlorovinyl)-cyclopropanecarboxylate]
[4]; 24 h
  LC50: 90 mg/L (≈ 228 µM)
[4]
  Relative efficacy: 4.3
